Reference: PMC8599628 (Journal of clinical pharmacology, 2021)
“And” between values parts separate entries of the source, which are not always exact repeats. Equal entries are not always repeated. Where two headings read alike, the source gives them in different places.

Tests used:
[1] = cited from earlier work
[2] = cited from earlier work; remark: listed apart in the source
[3] = test system: markers of immune activation; details: 10 mg bid for 5 weeks, virologically suppressed HIV+ participants; cited from earlier work
[4] = cited from earlier work; remark: listed apart in the source
[5] = test system: CYP3A; details: 25 mg RIL daily; cited from earlier work
[6] = test system: CYP3A4/5; details: cited from earlier work

For `N#CC[C@H](C1CCCC1)n1cc(-c2ncnc3[nH]ccc23)cn1` [ruxolitinib], the “CL/F typical value (with EFV)” value (Model IV (separated CL/F by EFV status), participants administered ART with EFV (N = 14)) was 22.5 L/h and 21.2 L/h, the “IIV V1 ω^2” value (both, human, in vivo) was 0.0607 and the “IOV F ω^2” value (both, human, in vivo) was 0.0669. For the same molecule, the “IOV F ω^2” value (both, human, in vivo, po) was 0.0567, the “ruxolitinib CL/F with co-administered RIL regimens” value (co-administered RIL/FTC/TAF (N = 3) or RIL/FTC/TDF (N = 1)) was “not increased” and the “median post hoc estimated CL/F” value (men, wk1) was 16.0 L/h. The “median post hoc estimated CL/F” value (men, wk4/5) was 14.3 L/h, the “geometric mean CL/F (post hoc, Model IV)” value (wk1, EFV/FTC/TDF group) was 22.3 L/h and the “geometric mean CL/F (post hoc, Model IV)” value (wk1, INSTI group) was 13.8 L/h. The “mean post hoc predicted CL/F” value (wk1, N = 39) was 16.6 L/h, the “geometric mean CL/F (post hoc, Model IV)” value (wk4/5, EFV/FTC/TDF group) was 20.8 L/h and the “geometric mean CL/F (post hoc, Model IV)” value (wk4/5, INSTI group) was 12.7 L/h. For the same molecule, the “mean post hoc predicted CL/F” value (wk4/5, N = 37) was 15.7 L/h, the “median post hoc estimated CL/F” value (women, wk1) was 15.2 L/h and the “median post hoc estimated CL/F” value (women, wk4/5) was 13.6 L/h. For the same molecule, the “reduction of ruxolitinib CL/F” value ([1]; 10 mg ruxolitinib tablet with 200 mg bid ketoconazole, N = 16) was 91%, the “reduction of ruxolitinib CL/F” value ([1]; 10 mg ruxolitinib tablet with 500 mg erythromycin, N = 15) was 21% and the “increase in ruxolitinib CL/F” value ([1]; 30 mg ruxolitinib tablet before and after 10 days of 600 mg rifampin, healthy participants N = 12) was 71%. For the same molecule, the orally absorbed [2] was greater than 95%, the “markers of immune activation” value [3] was “significantly decreased” and the “IIV Ka” value [4] was 75%. The “IIV V1” value [4] was 28%, the “IIV V2/F” value [4] was 102% and the V2 [4] was 11.2 L. The “IIV CL/F” value ([4]; myelofibrosis patients) was 39.1% and the V1 ([4]; normalized to a mean body weight of 72.9 kg) was 58.6 L.

For `Cc1cc(/C=C/C#N)cc(C)c1Nc1ccnc(Nc2ccc(C#N)cc2)n1` [RIL, rilpivirine], the “effect on CYP3A-dependent drug metabolism” value [5] is given as “did not alter”.

In the case of `O=C1Nc2ccc(Cl)cc2[C@@](C#CC2CC2)(C(F)(F)F)O1` [EFV, efavirenz], the “median increase in plasma 4β-OHCC/cholesterol ratio” value ([6]; 4th week after initiation of ART with EFV) is given as 257%, the “median increase in plasma 4β-OHCC/cholesterol ratio” value ([6]; 16th week after initiation of ART with EFV) is given as 291% and the “median increase in plasma 4β-OHCC/cholesterol ratio” value ([6]; 48th week after initiation of ART with EFV) is given as 165%.
